pIC50: −log10 of the molar value.
Target: T1, wild-type HIV-1 protease (Human immunodeficiency virus type 1 group M subtype B, UniProt P04585)
T1 construct: Escherichia coli expressed wild-type HIV-1 protease protein
Assay: Assay for Inhibition of Microbial Expressed HIV Protease (peptide substrate cleavage, LC-MS/MS readout)
Type: biochemical
Details: E. coli expressed wild-type HIV-1 protease, mean of at least two independent experiments, read-out: HIV Pr Enzyme HIV1 PR IC50
Outline: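 E. coli-expressed wild-type HIV-1 protease ([…]) was preincubated with inhibitor 30 min at room temperature in pH 5.5 acetate buffer (100 mM NaCl, 0.1% BSA). Then 400 μM octapeptide substrate was added and reacted 1 h at 30 °C; inhibition came from LC-MS/MS product peak areas, mean of ≥2 experiments.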

| SMILES | pIC50 |
| --- | --- |
| N=C1N[C@](CCCC(F)(F)F)(c2ccc(F)cc2)C(=O)N1Cc1ccc(C(F)(F)F)c(C(=O)N2Cc3cnc(-c4cccc(F)c4)nc3C2)c1 [Compound 86, (5R)-5-(4-fluorophenyl)-3-[3-{[2-(3-fluorophenyl)-5,7-dihydro-6H-pyrrolo[3,4-d]pyrimidin-6-yl]carbonyl}-4-(trifluoromethyl)-benzyl]-2-imino-5-(4,4,4-trifluorobutyl)imidazolidin-4-one] | 7.84 |
| N=C1N[C@](CCCC(F)(F)F)(c2ccc(F)cc2)C(=O)N1Cc1ccc(C(F)(F)F)c(C(=O)N2CCN3C(=O)OCC3C2)c1 (stereo partly drawn) [Compound 87, 7-{[5-{[(4R)-4-(4-fluorophenyl)-2-imino-5-oxo-4-(4,4,4-trifluoro-butyl)imidazolidin-1-yl]methyl}-2-(trifluoromethyl)phenyl]carbonyl}hexahydro[1,3] oxazolo[3,4-a]pyrazin-3-one] | 7.83 |
| N=C1N[C@](CCCC(F)(F)F)(c2ccc(F)cc2)C(=O)N1Cc1ccc(C(F)(F)F)c(C(=O)N2CCN(c3cncnc3)CC2)c1 [Compound 88, (5R)-5-(4-fluorophenyl)-2-imino-3-{3-[(4-pyrimidin-5-ylpiperazin-1-yl)carbonyl]-4-(trifluoromethyl)-benzyl}-5-(4,4,4-trifluorobutyl)-imidazolidin-4-one] | 7.82 |
| N=C1N[C@](CCCC(F)(F)F)(c2ccc(F)cc2)C(=O)N1Cc1ccc(C(F)(F)F)c(C(=O)N2Cc3cnc(-c4ccc(-n5cccn5)nc4)nc3C2)c1 [Compound 89, (5R)-5-(4-fluorophenyl)-2-imino-3-[3-({2-[6-(1H-pyrazol-1-yl)pyridin-3-yl]-5,7-dihydro-6H-pyrrolo[3,4-d]pyrimidin-6-yl}carbonyl)-4-(trifluoromethyl)benzyl]-5-(4,4,4-trifluorobutyl)imidazolidin-4-one] | 7.80 |
| CC(C)(O)C(=O)N1CCN(C(=O)c2cc(CN3C(=N)N[C@](CCCC(F)(F)F)(c4ccc(F)cc4)C3=O)ccc2C(F)(F)F)CC1 [Compound 90, (5R)-5-(4-fluorophenyl)-3-[3-{[4-(2-hydroxy-2-methylpropanoyl)-piperazin-1-yl]carbonyl}-4-(trifluoromethyl)benzyl]-2-imino-5-(4,4,4-trifluorobutyl)imidazolidin-4-one] | 7.80 |
| N=C1NC(CCC2CC2)(c2cc(F)cc(F)c2)C(=O)N1Cc1ccc(C(F)(F)F)c(C(=O)N2CCn3c(nnc3C(F)(F)F)C2)c1 (stereo not shown) [Compound 91, 5-(2-cyclopropylethyl)-5-(3,5-difluorophenyl)-2-imino-3-[4-(trifluoromethyl)-3-{[3-(trifluoro-methyl)-5,6-dihydro[1,2,4]triazolo-[4,3-a]pyrazin-7(8H)-yl]carbonyl}-benzyl]imidazolidin-4-one] | 7.79 |
| CS(=O)(=O)N1CCN(C(=O)c2cc(CN3C(=N)N[C@](CCCC(F)(F)F)(c4ccc(F)cc4)C3=O)ccc2C(F)(F)F)CC1 [Compound 92, (5R)-5-(4-fluorophenyl)-2-imino-3-[3-{[4-(methylsulfonyl)piperazin-1-yl]carbonyl}-4-(trifluoromethyl)-benzyl]-5-(4,4,4-trifluorobutyl)-imidazolidin-4-one] | 7.76 |
| N=C1N[C@](CCC2CC2)(c2ccc(F)cc2)C(=O)N1[C@@H]1CCCCc2ccc(C(=O)N3Cc4nccnc4C3)cc21 [Compound 93, (5R)-5-(2-cyclopropylethyl)-3-[(5R)-3-(5,7-dihydro-6H-pyrrolo-[3,4-b]pyrazin-6-ylcarbonyl)-6,7,8,9-tetrahydro-5H-benzo-[7]annulen-5-yl]-5-(4-fluoro-phenyl)-2-iminoimidazolidin-4-one] | 7.73 |
| N=C1N[C@](CCCC(F)(F)F)(c2ccc(F)cc2)C(=O)N1Cc1ccc(C(F)(F)F)c(C(=O)N2Cc3cnc(-c4ccccc4)nc3C2)c1 [Compound 94, (5R)-5-(4-fluorophenyl)-2-imino-3-{3-[(2-phenyl-5,7-dihydro-6H-pyrrolo[3,4-d]pyrimidin-6-yl)carbonyl]-4-(trifluoromethyl)-benzyl}-5-(4,4,4-trifluorobutyl)-imidazolidin-4-one] | 7.72 |
| N=C1N[C@](CCCC(F)(F)F)(c2ccc(F)cc2)C(=O)N1Cc1ccc(C(F)(F)F)c(C(=O)N2Cc3cnc(-c4cccc(-n5nccn5)c4)nc3C2)c1 [Compound 95, (5R)-5-(4-fluorophenyl)-2-imino-3-[3-({2-[3-(2H-1,2,3-triazol-2-yl)phenyl]-5,7-dihydro-6H-pyrrolo-[3,4-d]pyrimidin-6-yl}carbonyl)-4-(trifluoromethyl)benzyl]-5-(4,4,4-trifluorobutyl)imidazolidin-4-one] | 7.71 |
| COC(=O)Nc1ncc2c(n1)CN(C(=O)c1ccc3c(c1)[C@H](N1C(=N)N[C@](CCC(C)C)(c4ccccc4)C1=O)CC3)C2 [Compound 96, methyl [6-({(3R)-3-[(4R)-2-imino-4-(3-methylbutyl)-5-oxo-4-phenylimidazolidin-1-yl]-2,3-dihydro-1H-inden-5-yl}carbonyl)-6,7-dihydro-5H-pyrrolo[3,4-d]pyrimidin-2-yl]carbamate] | 7.69 |
| N=C1N[C@](CCCC(F)(F)F)(c2ccc(F)cc2)C(=O)N1Cc1ccc(C(F)(F)F)c(C(=O)N2Cc3cnc(-c4ccc(F)cc4)nc3C2)c1 [Compound 97, (5R)-5-(4-fluorophenyl)-3-[3-{[2-(4-fluorophenyl)-5,7-dihydro-6H-pyrrolo[3,4-d]pyrimidin-6-yl]carbonyl}-4-(trifluoromethyl)-benzyl]-2-imino-5-(4,4,4-trifluorobutyl)imidazolidin-4-one] | 7.69 |
| N=C1N[C@](CCCC(F)(F)F)(c2ccc(F)cc2)C(=O)N1Cc1ccc(C(F)(F)F)c(C(=O)N2CCn3cnnc3C2)c1 [Compound 98, (5R)-3-[3-(5,6-dihydro[1,2,4]triazolo[4,3-a]pyrazin-7(8H)-ylcarbonyl)-4-(trifluoromethyl)benzyl]-5-(4-fluorophenyl)-2-imino-5-(4,4,4-trifluorobutyl)imidazolidin-4-one] | 7.68 |
| N=C1N[C@](CCCC(F)(F)F)(c2ccc(F)cc2)C(=O)N1Cc1ccc(C(F)(F)F)c(C(=O)N2CCN(c3ccccn3)CC2)c1 [Compound 99, (5R)-5-(4-fluorophenyl)-2-imino-3-{3-[(4-pyridin-2-ylpiperazin-1-yl)carbonyl]-4-(trifluoromethyl)-benzyl}-5-(4,4,4-trifluorobutyl)-imidazolidin-4-one] | 7.67 |
| CC(C)CC[C@]1(c2ccc(F)cc2)NC(=N)N(C(c2ccc(C(F)(F)F)c(C(=O)N3Cc4nccnc4C3)c2)C2CCCC2)C1=O (stereo partly drawn) [Compound 101, (5R)-3-{cyclopentyl[3-(5,7-dihydro-6H-pyrrolo[3,4-b]pyrazin-6-ylcarbonyl)-4-(trifluoromethyl)-phenyl]methyl}-5-(4-fluorophenyl)-2-imino-5-(3-methylbutyl)-imidazolidin-4-one] | 7.63 |
| C=CCOC(=O)N1CCN(C(=O)c2cc(CN3C(=N)N[C@](CCCC(F)(F)F)(c4ccc(F)cc4)C3=O)ccc2C(F)(F)F)CC1 [Compound 102, prop-2-en-1-yl 4-{[5-{[(4R)-4-(4-fluorophenyl)-2-imino-5-oxo-4-(4,4,4-trifluorobutyl)imidazolidin-1-yl]methyl}-2-(trifluoromethyl)-phenyl]carbonyl} piperazine-1-carboxylate] | 7.63 |
| N=C1N[C@](CCC2CC2)(c2cccc(F)c2)C(=O)N1Cc1ccc(C(F)(F)F)c(C(=O)N2CCn3c(nnc3C(F)(F)F)C2)c1 [Compound 103, (5R)-5-(2-cyclopropylethyl)-5-(3-fluorophenyl)-2-imino-3-[4-(trifluoromethyl)-3-{[3-(trifluoro-methyl)-5,6-dihydro[1,2,4]triazolo-[4,3-a]pyrazin-7(8H)-yl]carbonyl}-benzyl]imidazolidin-4-one] | 7.62 |
| Cc1cccc(-c2ncc3c(n2)CN(C(=O)c2cc(CN4C(=N)N[C@](CCCC(F)(F)F)(c5ccc(F)cc5)C4=O)ccc2C(F)(F)F)C3)c1 [Compound 104, (5R)-5-(4-fluorophenyl)-2-imino-3-[3-{[2-(3-methylphenyl)-5,7-dihydro-6H-pyrrolo[3,4-d]pyrimidin-6-yl]carbonyl}-4-(trifluoromethyl)benzyl]-5-(4,4,4-trifluorobutyl)imidazolidin-4-one] | 7.62 |
| N=C1NC(C[C@@H]2CCOC2)(c2ccccc2)C(=O)N1Cc1ccc(C(F)(F)F)c(C(=O)N2CCn3c(nnc3C(F)(F)F)C2)c1 (stereo partly drawn) [Compound 105, 2-imino-5-phenyl-5-[(3R)-tetrahydrofuran-3-ylmethyl]-3-[4-(trifluoromethyl)-3-{[3-(trifluoro-methyl)-5,6-dihydro[1,2,4]triazolo-[4,3-a]pyrazin-7(8H)-yl]carbonyl}-benzyl]limidazolidin-4-one] | 7.61 |
| N=C1N[C@](CCCC(F)(F)F)(c2ccc(F)cc2)C(=O)N1Cc1ccc(C(F)(F)F)c(C(=O)N2Cc3cnc(N4CCCC4)nc3C2)c1 [Compound 106, (5R)-5-(4-fluorophenyl)-2-imino-3-{3-[(2-pyrrolidin-1-yl-5,7-dihydro-6H-pyrrolo[3,4-d]pyrimidin-6-yl)carbonyl]-4-(trifluoromethyl)-benzyl}-5-(4,4,4-trifluorobutyl)-imidazolidin-4-one] | 7.60 |
| N=C1N[C@](CCC2CC2)(c2ccc(F)cc2)C(=O)N1[C@@H]1CCOc2ccc(C(=O)N3Cc4nccnc4C3)cc21 [Compound 107, (5R)-5-(2-cyclopropylethyl)-3-[(4R)-6-(5,7-dihydro-6H-pyrrolo-[3,4-b]pyrazin-6-ylcarbonyl)-3,4-dihydro-2H-chromen-4-yl]-5-(4-fluorophenyl)-2-iminoimidazolidin-4-one] | 7.59 |
| N=C1N[C@](CCCC(F)(F)F)(c2ccc(F)cc2)C(=O)N1Cc1ccc(C(F)(F)F)c(C(=O)N2CCN(c3cccnc3)CC2)c1 [Compound 108, (5R)-5-(4-fluorophenyl)-2-imino-3-{3-[(4-pyridin-3-ylpiperazin-1-yl)carbonyl]-4-(trifluoromethyl)-benzyl}-5-(4,4,4-trifluorobutyl)-imidazolidin-4-one] | 7.58 |
